Experimental data taken from US9580487B2, “Method of treating stomach or bowel-related disorders by administering glucagon-like-peptide-2 (GLP-2) analogues” (Zealand Pharma A/S, priority 2005, dated 2017).
“Also recorded” adds a separate entry of the source. No end group written: not given here.

Legend:
Sprague Dawley rats = assay: Crypt-villus length and muscularis thickness in the small intestine of SD rats; format: in vivo
Procedure: FIG. 12 is a set of graphs showing the effect of compound 1846 (SEQ ID NO:34) on epithelial crypt-villus height (FIG. 12A) and muscular thickness (FIG. 12B) in the jejunum (i.e., mid section of the small intestine). Sprague Dawley rats were treated intravenously with compound 1846 (SEQ ID NO:34) (0.62, 3.41 or 6.2 mg/kg once daily) for 5 days (n=6/dose group). Then the animals were sacrificed and small intestinal biopsies (1 cm) were collected 25 cm distal from the pyloric sphincter. The biopsies were fixed, embedded in paraffin, sectioned and stained with haematoxylin and eosin. Stained sections were examined under a microscope and crypt depth, villus height, crypt-villus length and muscularis thickness measured. […] Values are means±SEM. * P<0.05, relative to vehicle controls (0 mg/kg/d).
The effect of the clinical candidate, 1846 (SEQ ID NO:34), on crypt-villus length and muscularis thickness in the small intestine of SD rats was investigated. 1846 (SEQ ID NO:34) (0.62, 3.41 or 6.2 mg/kg/day, n=6 rats/dose group) was administered as an i.v. bolus, once daily for five consecutive days. Twenty-four hours after the last dose had been administered the rats were sacrificed and a 1 cm biopsy was excised from the jejunum (30 cm distal from the gastric duodenal junction) and from the ileum (30 cm proximal from the ileocaecal junction) for histological processing.

[1] = tested on: male Sprague Dawley rats treated with indomethacin; assay: Indomethacin-induced small intestinal ulcers (model of Crohn's disease), extent of ulceration; format: in vivo; details: for Effect on ulceration compared with prednisolone: highest dose 200 nmol/kg vs prednisolone 10 mg/kg; for Estimated extent of ulceration: indomethacin alone 333±21 mm^2
Procedure: FIG. 13 is a graph illustrating the effect of compound 1848 (SEQ ID NO:36) on small intestinal ulcers induced by indomethacin. Male Sprague Dawley rats were treated with vehicle (saline; group 1) or indomethacin (7 mg/kg s.c., once daily for two days; groups 2-7). Indomethacin was given alone (group 2) or in combination with prednisolone (10 mg/kg s.c.; group 3) or with 8, 40, or 200 nmol/kg compound 1848 (SEQ ID NO:36) s.c. […] (groups 4-6). Finally, one group of rats was treated with combination treatment of prednisolone (10 mg/kg s.c.) and compound 1848 (SEQ ID NO:36), 200 nmol/kg s.c. once daily (group 7). Treatment with compound 1848 (SEQ ID NO:36) was initiated 4 days prior to indomethacin and continued during the two days of indomethacin treatment. On day 3, rats were sacrificed and upon necropsy, the small intestine was gently flushed with 10% formalin and filled with formalin for a period of 5 minutes, after which the intestine was cut open along the antimesenteric margin and suspended on a polypropylene plate. Any remaining intestinal contents were carefully removed with a pair of tweezers. After fixation for another 24 hours at room temperature, the tissue was rinsed in Milli-Q water and surface-stained for 20 minutes with Alcian Green 3BX (Chroma) prepared as a 0.5% solution in 1% acetic acid (Bie & Berntsen). After removal of excess staining solution with Milli-Q water the tissue preparation was transferred to 70% alcohol and analyzed using a stereomicroscope at low magnification (×7). Starting at the pylorus, the small intestine was scanned and the shape (circular vs. linear) and size (circular ulcers: diameter, linear ulcers: length×width) of all ulcers was measured using a standard ruler (resolution: 0.5 mm). An ulcer was defined as an area, which lacked epithelial surface. In healing ulcers only the area that still lacked epithelial surface was regarded an ulcer even if the villus structure was still missing in a larger area. All analysis was performed in a blinded manner. […] Treatment with prednisolone caused a significant reduction in the extent of ulceration by app. 29%. […] Values are means±SEM. * P<0.05 vs. indomethacin (group 2). ^#P<0.05 vs. prednisolone (group 3).
Crohn's disease is a chronic disease that causes episodic inflammation of the small intestine. The effect of the GLP-2 analogue 1848 (SEQ ID NO:36) on small intestinal inflammation in an indomethacin-induced model of Crohn's disease was investigated. We have previously shown that administration of indomethacin (s.c, once daily for 2 days) induces small intestinal inflammation characterized by ulcerations and, increases in the pro-inflammatory cytokine, tumour necrosis factor alpha (TNF-α).
To determine the effect of ZP1848 (SEQ ID NO:36) on ulceration 1848 (SEQ ID NO:36) (8, 40 and 200 nmol/kg, s.c, twice daily (9:00 and 16:00)) was given for 4 days prior to the first dose of indomethacin and for an additional two days together with indomethacin. The corticosteroid, prednisolone (10 mg/kg, p.o) was used as a positive control since corticosteroids are commonly used in the treatment of active inflammation in Crohn's disease. In addition a group of animals were given both 1848 (SEQ ID NO:36) (200 nmol/kg) and prednisolone to determine the effects of a combination treatment. Twenty four hours after the last dose of 1848 (SEQ ID NO:36) had been given the animals were sacrificed the small intestine was gently flushed clean and fixed. To determine the extent of ulceration the intestine was cut open along the antimesenteric margin, suspended on a polypropylene plate and surface-stained with Alcian Green 3BX. Starting at the pylorus, the small intestine was scanned and the shape (circular vs. linear) and size (circular ulcers: diameter, linear ulcers: length×width) of all ulcers was measured using a standard ruler (resolution: 0.5 mm). An ulcer was defined as an area, which lacked epithelial surface. […]

| Substance | Muscular thickness of the jejunum (Sprague Dawley rats; 0.62, 3.41 or 6.2 mg/kg i.v. once daily for 5 days) | Crypt-villus length (Sprague Dawley rats; 0.62, 3.41 or 6.2 mg/kg i.v. once daily for 5 days, jejunum (and ileum)) | Muscularis thickness in the ileum (Sprague Dawley rats; 0.62, 3.41 or 6.2 mg/kg/day i.v. for five days) | Effect on ulceration compared with prednisolone [1] | Estimated extent of ulceration ([1]; 8 nmol/kg s.c.) [mm^2] | Estimated extent of ulceration ([1]; 40 nmol/kg s.c.) [mm^2] | Ulceration: addition of prednisolone to high dose compound ([1]; 200 nmol/kg plus prednisolone 10 mg/kg) | Estimated extent of ulceration ([1]; 200 nmol/kg s.c.) [mm^2] | Prevention of indomethacin-induced ulceration (in words) ([1]; 8, 40, 200 nmol/kg) | Reduction of total ulceration ([1]; highest dose (200 nmol/kg) vs indomethacin alone) [%] |
| --- | --- | --- | --- | --- | --- | --- | --- | --- | --- | --- |
| [Gly2, Glu3, Ser8,11, Leu10, Ala16,24,28]hGLP-2(1-33)-(Lys)6-NH2 (HGEGSFSSELSTILDALAARDFIAWLIATKITDKKKKKK-NH2) [Compound 1846] | no effect on the muscular thickness of the jejunum | dose-dependent increases in crypt-villus length; also recorded: dose-dependently increased mean crypt-villus length in the jejunum and ileum | dose-dependently increased | greater than the effect of prednisolone |  |  |  |  |  |  |
| [Gly2, Glu3, Thr5, Ser8, Leu10, Ala11,16,24,28]hGLP-2(1-33)-(Lys)6-NH2 (HGEGTFSSELATILDALAARDFIAWLIATKITDKKKKKK-NH2) [Compound 1848] |  |  |  | more effective than the positive control, prednisolone | 230±12 | 216±17 | did not produced any additional effect | 178±17 | prevented indomethacin-induced ulceration in a dose-dependent fashion | ~50 |
